Experimental data from US20090042906A1, “METHODS FOR TREATING CANCERS ASSOCIATED WITH CONSTITUTIVE EGFR SIGNALING” (Massachusetts Institute of Technology, priority 2007, published 2009).

Assays:
c-Met receptor [1] = molecular target: T1, c-Met receptor (Homo sapiens, UniProt P08581); assay: Immunoblotting of c-Met receptor phosphorylation after kinase inhibitor treatment of U87H cells; format: cell-based; details: 1 h inhibitor dose escalation after 24-h serum starvation, Western blot
T1 construct: the U87MG cell line which expresses low levels of c-Met; endogenous in cells; host or cells: U87MG-derived U87H cells (human glioblastoma)
Method: For whole-cell extracts, cells were lysed in lysis buffer (20 mmol/L Tris-HCl, 150 mmol/L NaCl, 1 mmol/L EDTA, 1% Triton X-100, 2.5 mmol/L sodium PPi, 1 mmol/ ? glycerophosphate) containing protease and phosphatase inhibitors after the indicated treatment. Protein samples were separated on either 7.5% or 10% SDS-polyacrylamide gels and transferred onto polyvinylidene difluoride membrane. Blots were developed with supersignal West Femto substrate (Pierce) after incubation with primary and secondary antibodies. […] Cells were then lysed as described above for either immunoblotting or mass spectrometric analysis.

[2] = test system: human glioblastoma xenografts expressing EGFRvIII; details: co-treatment of cisplatin with AG1478; cited from earlier work
U87H cells [3] = assay: Cell viability assay (WST-1); format: cell-based, human; details: for cell viability, combination with cisplatin: increasing doses of inhibitor with constant 10 μg/ml cisplatin, versus cisplatin only control; for cell viability, single agent: single treatment, 72 h after 24-h serum starvation; for cytotoxicity of combination treatment: 10 μM c-Met inhibitor plus 5 μM AG1478, P<0.001 (SU11274), P<0.0001 (PHA665752); for cell viability, combined dosing with AG1478: c-Met inhibitor dose-response plus constant 5 μM AG1478, 72 h
EGFRvIII receptor = molecular target: T2, EGFRvIII receptor (Homo sapiens, UniProt P00533, DELINS30-297G); assay: Mass spectrometric phosphotyrosine analysis of SU11274 treated U87H cells (EGFRvIII sites); format: cell-based; details: mass spectrometry (data not shown)
T2 construct: expressed in transfected cells; host or cells: U87MG human glioblastoma cells (U87H population), retroviral transduction with pLERNL
Method: U87MG cells expressing titrated levels of EGFRvIII were maintained in DMEM medium supplemented with 10% FBS. 1.5 million cells per 10 cm plate were washed with PBS and incubated for 24 hours in serum-free media. Cells were lysed with 8 M urea supplemented with 1 mM sodium orthovanadate (Sigma-Aldrich). For each biological replicate, three 10 cm plates were pooled together. The samples were then further processed and labeled with the iTRAQ reagent as previously described (Zhang et al. (2005) Mol Cell Proteom 4:1240-1250). Peptide immunoprecipitation was performed as previously described (Zhang et al. (2005) Mol Cell Proteom 4:1240-1250), with the following exceptions: 10 μg of protein G Plus-agarose beads (Calbiochem) were incubated with 12 μg of anti-phosphotyrosine antibody (pTyr100 (Cell Signaling Technology) in 200 μl of IP buffer (100 mM Tris, 100 mM NaCl, 1% NP-40, pH 7.4) for 8 hr at 4° C. Immobilized metal affinity chromatography (IMAC) was performed as previously described to remove non-specific non-phosphorylated peptides and eluted phosphopeptides were analyzed by ESI LC-MS/MS on a QqT of (QSTAR XL Pro, Applied Biosystems) operated in IDA mode, as previously described (Zhang et al. (2005) Mol Cell Proteom 4:1240-1250).
MS/MS spectra were extracted and searched against human protein database (NCBI) using ProQuant (Applied Biosystems) as recommended by the manufacturer. […]

U87H cells [4] = assay: Apoptosis assay (caspase 3/7 activity, Apo-ONE); format: cell-based, human
Method: 10,000 cells were seeded per well in a 96 well plate. […] After 24 hours of drug treatment, caspase 3/7 activity was measured using Apo-ONE Homogeneous Caspase-3/7 Assay (Promega), following the manufacturer's recommendations.

c-Met receptor [5] = molecular target: T1, c-Met receptor; assay: Mass spectrometric phosphotyrosine analysis of SU11274 treated U87H cells (c-Met); format: cell-based; details: mass spectrometry

T1 sequence (P08581 25-1390): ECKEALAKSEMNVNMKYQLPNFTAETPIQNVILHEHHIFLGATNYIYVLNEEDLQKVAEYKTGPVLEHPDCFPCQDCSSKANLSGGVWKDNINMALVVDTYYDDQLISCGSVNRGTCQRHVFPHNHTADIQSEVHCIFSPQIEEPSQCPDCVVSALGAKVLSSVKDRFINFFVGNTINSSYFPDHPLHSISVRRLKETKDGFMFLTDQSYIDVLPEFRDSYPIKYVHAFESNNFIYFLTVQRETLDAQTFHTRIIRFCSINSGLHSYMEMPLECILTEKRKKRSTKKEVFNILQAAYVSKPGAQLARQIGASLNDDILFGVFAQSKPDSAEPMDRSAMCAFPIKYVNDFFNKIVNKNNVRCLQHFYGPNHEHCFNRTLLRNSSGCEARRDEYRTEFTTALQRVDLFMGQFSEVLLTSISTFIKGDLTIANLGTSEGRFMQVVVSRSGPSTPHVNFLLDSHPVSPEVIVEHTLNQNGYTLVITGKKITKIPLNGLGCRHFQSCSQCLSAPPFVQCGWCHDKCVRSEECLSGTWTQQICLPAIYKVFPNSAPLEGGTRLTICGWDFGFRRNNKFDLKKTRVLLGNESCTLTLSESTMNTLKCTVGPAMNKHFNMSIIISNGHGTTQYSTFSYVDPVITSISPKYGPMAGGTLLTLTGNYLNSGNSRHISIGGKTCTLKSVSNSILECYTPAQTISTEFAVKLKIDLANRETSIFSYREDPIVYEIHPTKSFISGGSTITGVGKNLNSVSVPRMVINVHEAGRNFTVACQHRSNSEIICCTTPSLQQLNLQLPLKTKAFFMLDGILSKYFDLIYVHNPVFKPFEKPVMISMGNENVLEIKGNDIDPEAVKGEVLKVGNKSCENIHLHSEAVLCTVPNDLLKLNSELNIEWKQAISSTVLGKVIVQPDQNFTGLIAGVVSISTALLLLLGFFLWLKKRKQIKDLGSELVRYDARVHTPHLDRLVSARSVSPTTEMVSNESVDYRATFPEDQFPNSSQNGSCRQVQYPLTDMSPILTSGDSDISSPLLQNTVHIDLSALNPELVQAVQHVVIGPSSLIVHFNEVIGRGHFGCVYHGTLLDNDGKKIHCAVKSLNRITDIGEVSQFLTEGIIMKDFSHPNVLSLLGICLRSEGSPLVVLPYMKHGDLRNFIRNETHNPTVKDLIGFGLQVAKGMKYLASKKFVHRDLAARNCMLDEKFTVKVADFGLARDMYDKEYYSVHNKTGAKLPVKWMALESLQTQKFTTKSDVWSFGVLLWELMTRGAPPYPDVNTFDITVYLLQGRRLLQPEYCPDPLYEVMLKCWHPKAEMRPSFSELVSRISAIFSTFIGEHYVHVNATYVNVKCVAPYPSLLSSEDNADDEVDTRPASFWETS

| Compound | c-Met receptor phosphorylation (Y1230/Y1234/Y1235) (c-Met receptor [1]) | sensitisation of xenografts to cisplatin [2] | cell viability, combination with cisplatin (U87H cells [3]) | cell viability, single agent (U87H cells [3]; WST-1) | cytotoxicity of combination treatment (U87H cells [3]) | cell viability, combined dosing with AG1478 (U87H cells [3]; WST-1) | EGFRvIII receptor tyrosine phosphorylation on multiple sites (EGFRvIII receptor) | apoptosis (caspase 3/7 cleavage), combination treatment (U87H cells [4]; 10 μM SU11274 plus 5 μM AG1478, 24 h after 24-h serum starvation, P<0.01) | cell death, combined dosing with AG1478 (U87H cells [4]; SU11274 with constant 5 μM AG1478) | specificity for the kinase activity of the c-Met receptor (c-Met receptor [5]) | cell viability, cisplatin only (U87H cells [3]; 10 μg/ml cisplatin over 72 h after 24-h serum starvation, WST-1) |
| --- | --- | --- | --- | --- | --- | --- | --- | --- | --- | --- | --- |
| COc1cc2ncnc(Nc3cccc(Cl)c3)c2cc1OC [AG1478] | concomitant decrease | sensitized to cisplatin | similar | only decreased cell viability at very high inhibitor doses | – | – | – | – | – | – | – |
| Cc1[nH]c(/C=C2\C(=O)Nc3ccc(S(=O)(=O)Cc4c(Cl)cccc4Cl)cc32)c(C)c1C(=O)N1CCC[C@@H]1CN1CCCC1 [PHA665752] | – | – | – | – | significantly enhanced cytotoxicity | synergistically sensitize | – | – | – | – | – |
| Cc1[nH]c(/C=C2\C(=O)Nc3ccc(S(=O)(=O)N(C)c4cccc(Cl)c4)cc32)c(C)c1C(=O)N1CCN(C)CC1 [SU11274] | dose dependent decrease | – | dramatic decrease in cell viability | only decreased cell viability at very high inhibitor doses | significantly enhanced cytotoxicity | synergistic decrease in cell viability | does not affect | significantly enhanced apoptosis | increase in cell death | exquisitely specific | – |
| N.N.[Cl][Pt][Cl] [cisplatin] | – | – | – | – | – | – | – | – | – | – | resistant |
